Laboratory results published in ChEMBL document CHEMBL4507287, “Data for DCP probe MRL-650” (2021).

Legend:
[1] = tested on: Tyrosine-protein kinase ABL1 (Homo sapiens), P00519 [T315I]; details: Compound concentration 1000.0 nM
[2] = target: Activin receptor type-1 (Homo sapiens) (UniProt Q04771); details: Compound concentration 1000.0 nM
[3] = target: Activin receptor type-2A (Homo sapiens) (UniProt P27037); details: Compound concentration 1000.0 nM
[4] = target: 5'-AMP-activated protein kinase catalytic subunit alpha-2 (Homo sapiens) (UniProt P54646); details: Compound concentration 1000.0 nM
[5] = target: Aurora kinase B (Homo sapiens) (UniProt Q96GD4); details: Compound concentration 1000.0 nM
[6] = target: Mitotic checkpoint serine/threonine-protein kinase BUB1 (Homo sapiens) (UniProt O43683); details: Compound concentration 1000.0 nM
[7] = target: Calcium/calmodulin-dependent protein kinase type 1B (Homo sapiens) (UniProt Q6P2M8); details: Compound concentration 1000.0 nM
[8] = target: Cyclin-dependent kinase-like 3 (Homo sapiens) (UniProt Q8IVW4); details: Compound concentration 1000.0 nM
[9] = target: Serine/threonine-protein kinase Chk1 (Homo sapiens) (UniProt O14757); details: Compound concentration 1000.0 nM
[10] = target: Dual specificity protein kinase CLK1 (Homo sapiens) (UniProt P49759); details: Compound concentration 1000.0 nM
[11] = target: Macrophage colony-stimulating factor 1 receptor (Homo sapiens) (UniProt P07333); details: Compound concentration 1000.0 nM
[12] = target: Myotonin-protein kinase (Homo sapiens) (UniProt Q09013); details: Compound concentration 1000.0 nM
[13] = tested on: Epidermal growth factor receptor (Homo sapiens), P00533 [L858R,T790M]; details: Compound concentration 1000.0 nM
[14] = tested on: Epidermal growth factor receptor (Homo sapiens), P00533 [UNDEFINED MUTATION]; details: Compound concentration 1000.0 nM
[15] = target: Ephrin type-A receptor 7 (Homo sapiens) (UniProt Q15375); details: Compound concentration 1000.0 nM
[16] = target: Receptor tyrosine-protein kinase erbB-3 (Homo sapiens) (UniProt P21860); details: Compound concentration 1000.0 nM
[17] = target: Mitogen-activated protein kinase 15 (Homo sapiens) (UniProt Q8TD08); details: Compound concentration 1000.0 nM
[18] = tested on: Receptor-type tyrosine-protein kinase FLT3 (Homo sapiens), P36888 [D835H]; details: Compound concentration 1000.0 nM
[19] = target: Receptor-type tyrosine-protein kinase FLT3 (Homo sapiens) (UniProt P36888); details: Compound concentration 1000.0 nM
[20] = target: Mast/stem cell growth factor receptor Kit (Homo sapiens) (UniProt P10721); details: Compound concentration 1000.0 nM
[21] = target: Serine/threonine-protein kinase LATS1 (Homo sapiens) (UniProt O95835); details: Compound concentration 1000.0 nM
[22] = tested on: Leucine-rich repeat serine/threonine-protein kinase 2 (Homo sapiens), Q5S007 [G2019S]; details: Compound concentration 1000.0 nM
[23] = target: Mitogen-activated protein kinase kinase kinase 15 (Homo sapiens) (UniProt Q6ZN16); details: Compound concentration 1000.0 nM
[24] = target: Serine/threonine-protein kinase MARK2 (Homo sapiens) (UniProt Q7KZI7); details: Compound concentration 1000.0 nM
[25] = target: Myosin light chain kinase (Homo sapiens) (UniProt Q32MK0); details: Compound concentration 1000.0 nM
[26] = target: Mitogen-activated protein kinase kinase kinase 14 (Homo sapiens) (UniProt Q99558); details: Compound concentration 1000.0 nM
[27] = target: Serine/threonine-protein kinase PAK 2 (Homo sapiens) (UniProt Q13177); details: Compound concentration 1000.0 nM
[28] = target: Cyclin-dependent kinase 18 (Homo sapiens) (UniProt Q07002); details: Compound concentration 1000.0 nM
[29] = target: Phosphorylase b kinase gamma catalytic chain, skeletal muscle/heart isoform (Homo sapiens) (UniProt Q16816); details: Compound concentration 1000.0 nM
[30] = tested on: Phosphatidylinositol 4,5-bisphosphate 3-kinase catalytic subunit alpha isoform (Homo sapiens), P42336 [E542K]; details: Compound concentration 1000.0 nM
[31] = tested on: Phosphatidylinositol 4,5-bisphosphate 3-kinase catalytic subunit alpha isoform (Homo sapiens), P42336 [M1043I]; details: Compound concentration 1000.0 nM
[32] = target: Phosphatidylinositol 5-phosphate 4-kinase type-2 beta (Homo sapiens) (UniProt P78356); details: Compound concentration 1000.0 nM
[33] = target: Phosphatidylinositol 5-phosphate 4-kinase type-2 gamma (Homo sapiens) (UniProt Q8TBX8); details: Compound concentration 1000.0 nM
[34] = target: Protein kinase C delta type (Homo sapiens) (UniProt Q05655); details: Compound concentration 1000.0 nM
[35] = target: Serine/threonine-protein kinase RIO1 (Homo sapiens) (UniProt Q9BRS2); details: Compound concentration 1000.0 nM
[36] = target: Serine/threonine-protein kinase 35 (Homo sapiens) (UniProt Q8TDR2); details: Compound concentration 1000.0 nM
[37] = target: Tyrosine-protein kinase SYK (Homo sapiens) (UniProt P43405); details: Compound concentration 1000.0 nM
[38] = target: TGF-beta receptor type-2 (Homo sapiens) (UniProt P37173); details: Compound concentration 1000.0 nM
[39] = target: Activated CDC42 kinase 1 (Homo sapiens) (UniProt Q07912); details: Compound concentration 1000.0 nM
[40] = target: Tyrosine-protein kinase receptor TYRO3 (Homo sapiens) (UniProt Q06418); details: Compound concentration 1000.0 nM
[41] = target: Vascular endothelial growth factor receptor 2 (Homo sapiens) (UniProt P35968); details: Compound concentration 1000.0 nM
[42] = target: 5-hydroxytryptamine receptor 2A (Homo sapiens, UniProt P28223); details: Compound concentration 10.0 uM
[43] = target: D(2) dopamine receptor (Homo sapiens) (UniProt P14416); details: Compound concentration 10.0 uM
[44] = target: Muscarinic acetylcholine receptor M2 (Homo sapiens) (UniProt P08172); details: Compound concentration 10.0 uM
[45] = target: Muscarinic acetylcholine receptor M3 (Homo sapiens) (UniProt P20309); details: Compound concentration 10.0 uM

Mast/stem cell growth factor receptor Kit (Homo sapiens), sequence (P10721 whole entry): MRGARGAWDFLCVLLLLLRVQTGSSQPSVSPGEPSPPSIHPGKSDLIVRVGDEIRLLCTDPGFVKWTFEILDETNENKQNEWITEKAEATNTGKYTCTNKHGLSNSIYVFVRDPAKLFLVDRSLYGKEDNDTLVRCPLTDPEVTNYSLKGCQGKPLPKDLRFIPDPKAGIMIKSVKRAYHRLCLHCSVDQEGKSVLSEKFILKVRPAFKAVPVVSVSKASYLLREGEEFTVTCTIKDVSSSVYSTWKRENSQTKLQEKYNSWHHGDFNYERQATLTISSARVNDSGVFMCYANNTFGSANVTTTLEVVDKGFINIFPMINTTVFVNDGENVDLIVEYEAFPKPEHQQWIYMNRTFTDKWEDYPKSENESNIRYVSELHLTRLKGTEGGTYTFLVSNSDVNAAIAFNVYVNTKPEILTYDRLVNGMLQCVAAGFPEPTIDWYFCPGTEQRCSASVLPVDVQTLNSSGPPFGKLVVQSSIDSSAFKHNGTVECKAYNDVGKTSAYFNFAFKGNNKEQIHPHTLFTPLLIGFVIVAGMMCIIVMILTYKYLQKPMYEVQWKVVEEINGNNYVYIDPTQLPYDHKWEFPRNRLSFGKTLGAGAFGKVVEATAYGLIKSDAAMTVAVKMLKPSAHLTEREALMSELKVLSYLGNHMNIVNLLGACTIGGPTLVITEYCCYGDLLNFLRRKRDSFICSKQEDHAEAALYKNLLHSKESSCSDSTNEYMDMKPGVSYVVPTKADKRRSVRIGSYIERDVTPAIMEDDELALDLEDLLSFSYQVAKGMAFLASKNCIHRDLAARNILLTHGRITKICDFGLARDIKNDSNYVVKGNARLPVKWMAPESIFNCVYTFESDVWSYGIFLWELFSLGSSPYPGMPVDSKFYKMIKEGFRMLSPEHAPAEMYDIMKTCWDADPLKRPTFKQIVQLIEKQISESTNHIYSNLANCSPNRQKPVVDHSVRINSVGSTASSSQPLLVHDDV
TGF-beta receptor type-2 (Homo sapiens), sequence (P37173 whole entry): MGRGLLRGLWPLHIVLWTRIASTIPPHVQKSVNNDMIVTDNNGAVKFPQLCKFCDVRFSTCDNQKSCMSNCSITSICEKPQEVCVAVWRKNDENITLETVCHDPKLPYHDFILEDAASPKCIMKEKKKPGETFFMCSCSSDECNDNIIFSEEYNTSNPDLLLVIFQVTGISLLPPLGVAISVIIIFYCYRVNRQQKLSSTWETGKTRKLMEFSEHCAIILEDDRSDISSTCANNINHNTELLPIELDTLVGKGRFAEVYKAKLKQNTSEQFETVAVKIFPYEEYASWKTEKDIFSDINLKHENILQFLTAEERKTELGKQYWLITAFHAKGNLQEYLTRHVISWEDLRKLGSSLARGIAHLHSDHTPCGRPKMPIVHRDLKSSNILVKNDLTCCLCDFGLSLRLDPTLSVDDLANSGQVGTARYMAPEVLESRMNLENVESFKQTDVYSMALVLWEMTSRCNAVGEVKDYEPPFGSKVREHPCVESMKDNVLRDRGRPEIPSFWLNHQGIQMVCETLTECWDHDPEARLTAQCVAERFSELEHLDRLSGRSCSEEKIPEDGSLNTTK
Serine/threonine-protein kinase PAK 2 (Homo sapiens), sequence (Q13177 whole entry): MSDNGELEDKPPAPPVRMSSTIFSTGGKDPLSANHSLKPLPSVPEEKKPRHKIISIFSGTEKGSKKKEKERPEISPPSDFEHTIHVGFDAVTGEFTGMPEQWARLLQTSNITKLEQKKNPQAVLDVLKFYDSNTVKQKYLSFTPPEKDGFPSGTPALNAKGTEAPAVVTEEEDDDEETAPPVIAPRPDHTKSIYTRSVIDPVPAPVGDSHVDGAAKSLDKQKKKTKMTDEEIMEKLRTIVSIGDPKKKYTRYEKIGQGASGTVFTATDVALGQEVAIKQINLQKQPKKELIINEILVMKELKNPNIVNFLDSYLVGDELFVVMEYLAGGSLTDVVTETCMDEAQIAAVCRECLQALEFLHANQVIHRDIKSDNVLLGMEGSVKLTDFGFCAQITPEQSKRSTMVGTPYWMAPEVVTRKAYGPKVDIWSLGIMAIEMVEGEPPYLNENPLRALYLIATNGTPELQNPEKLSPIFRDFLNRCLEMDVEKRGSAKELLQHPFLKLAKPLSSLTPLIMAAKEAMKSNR
Serine/threonine-protein kinase LATS1 (Homo sapiens), sequence (O95835 whole entry): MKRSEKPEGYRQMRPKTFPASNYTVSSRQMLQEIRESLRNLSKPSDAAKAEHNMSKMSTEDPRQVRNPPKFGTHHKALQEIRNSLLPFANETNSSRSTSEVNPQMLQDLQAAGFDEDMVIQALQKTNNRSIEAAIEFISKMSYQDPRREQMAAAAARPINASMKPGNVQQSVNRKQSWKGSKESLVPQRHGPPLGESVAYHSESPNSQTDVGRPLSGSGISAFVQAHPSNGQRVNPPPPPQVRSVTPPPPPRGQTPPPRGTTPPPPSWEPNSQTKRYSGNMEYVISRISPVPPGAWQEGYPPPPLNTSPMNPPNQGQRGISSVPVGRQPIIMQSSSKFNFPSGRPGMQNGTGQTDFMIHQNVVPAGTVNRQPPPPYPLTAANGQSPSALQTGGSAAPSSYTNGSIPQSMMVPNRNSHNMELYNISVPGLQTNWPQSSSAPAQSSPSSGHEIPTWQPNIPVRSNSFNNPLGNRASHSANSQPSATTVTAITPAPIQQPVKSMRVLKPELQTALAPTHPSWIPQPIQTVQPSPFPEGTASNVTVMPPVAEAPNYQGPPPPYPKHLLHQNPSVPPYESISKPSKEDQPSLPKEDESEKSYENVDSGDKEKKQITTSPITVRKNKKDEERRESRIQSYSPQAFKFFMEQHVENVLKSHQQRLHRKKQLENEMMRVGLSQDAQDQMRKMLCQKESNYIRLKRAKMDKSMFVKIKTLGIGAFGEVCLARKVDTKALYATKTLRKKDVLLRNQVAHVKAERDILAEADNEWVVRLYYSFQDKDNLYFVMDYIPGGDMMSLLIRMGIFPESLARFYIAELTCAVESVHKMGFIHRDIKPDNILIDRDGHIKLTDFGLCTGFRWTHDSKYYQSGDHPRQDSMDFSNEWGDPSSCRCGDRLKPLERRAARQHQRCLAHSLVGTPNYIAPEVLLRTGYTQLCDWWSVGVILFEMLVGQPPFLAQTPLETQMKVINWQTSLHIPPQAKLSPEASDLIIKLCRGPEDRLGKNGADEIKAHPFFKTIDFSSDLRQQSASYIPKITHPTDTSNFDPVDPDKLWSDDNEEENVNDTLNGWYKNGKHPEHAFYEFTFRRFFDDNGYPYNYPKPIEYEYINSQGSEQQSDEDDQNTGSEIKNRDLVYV
Serine/threonine-protein kinase RIO1 (Homo sapiens), sequence (Q9BRS2 whole entry): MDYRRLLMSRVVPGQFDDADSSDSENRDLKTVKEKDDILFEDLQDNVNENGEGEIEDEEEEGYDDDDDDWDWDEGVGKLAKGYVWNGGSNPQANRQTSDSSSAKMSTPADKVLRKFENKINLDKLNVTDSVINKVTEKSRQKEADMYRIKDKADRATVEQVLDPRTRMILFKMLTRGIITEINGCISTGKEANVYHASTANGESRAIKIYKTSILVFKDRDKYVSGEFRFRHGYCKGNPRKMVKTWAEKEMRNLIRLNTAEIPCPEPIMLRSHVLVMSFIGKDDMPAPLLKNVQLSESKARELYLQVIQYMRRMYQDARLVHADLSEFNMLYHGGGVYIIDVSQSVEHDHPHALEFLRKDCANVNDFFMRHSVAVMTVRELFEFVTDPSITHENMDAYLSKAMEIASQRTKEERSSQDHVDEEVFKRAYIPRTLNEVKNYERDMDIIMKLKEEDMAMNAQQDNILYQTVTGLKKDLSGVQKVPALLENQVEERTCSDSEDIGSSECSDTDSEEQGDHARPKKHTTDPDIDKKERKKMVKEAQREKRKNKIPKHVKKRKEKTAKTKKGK
Activin receptor type-2A (Homo sapiens), sequence (P27037 whole entry): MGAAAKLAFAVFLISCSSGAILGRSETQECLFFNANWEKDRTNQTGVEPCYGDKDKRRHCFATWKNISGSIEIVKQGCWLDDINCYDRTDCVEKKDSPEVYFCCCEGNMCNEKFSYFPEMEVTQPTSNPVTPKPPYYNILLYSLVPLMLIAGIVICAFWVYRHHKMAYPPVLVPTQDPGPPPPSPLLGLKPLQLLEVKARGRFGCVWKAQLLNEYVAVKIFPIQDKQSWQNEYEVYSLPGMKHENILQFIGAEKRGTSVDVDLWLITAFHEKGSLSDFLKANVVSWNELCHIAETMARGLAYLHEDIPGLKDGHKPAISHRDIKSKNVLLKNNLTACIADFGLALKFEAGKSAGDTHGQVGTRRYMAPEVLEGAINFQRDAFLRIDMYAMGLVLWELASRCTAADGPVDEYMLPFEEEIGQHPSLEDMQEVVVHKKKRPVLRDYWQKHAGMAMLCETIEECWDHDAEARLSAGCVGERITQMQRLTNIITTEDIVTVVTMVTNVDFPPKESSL
Phosphatidylinositol 5-phosphate 4-kinase type-2 beta (Homo sapiens), sequence (P78356 whole entry): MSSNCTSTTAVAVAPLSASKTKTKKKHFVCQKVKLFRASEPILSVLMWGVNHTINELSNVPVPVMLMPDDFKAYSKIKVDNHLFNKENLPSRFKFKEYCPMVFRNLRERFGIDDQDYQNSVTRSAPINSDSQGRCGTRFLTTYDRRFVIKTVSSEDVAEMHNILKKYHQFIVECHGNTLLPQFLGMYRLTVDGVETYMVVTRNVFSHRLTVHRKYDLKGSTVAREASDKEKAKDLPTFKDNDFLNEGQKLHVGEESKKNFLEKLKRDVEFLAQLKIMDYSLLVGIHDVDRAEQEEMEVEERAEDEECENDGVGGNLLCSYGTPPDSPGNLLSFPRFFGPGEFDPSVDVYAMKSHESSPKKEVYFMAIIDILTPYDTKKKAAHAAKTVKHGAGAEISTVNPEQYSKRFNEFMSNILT
Calcium/calmodulin-dependent protein kinase type 1B (Homo sapiens), sequence (Q6P2M8 whole entry): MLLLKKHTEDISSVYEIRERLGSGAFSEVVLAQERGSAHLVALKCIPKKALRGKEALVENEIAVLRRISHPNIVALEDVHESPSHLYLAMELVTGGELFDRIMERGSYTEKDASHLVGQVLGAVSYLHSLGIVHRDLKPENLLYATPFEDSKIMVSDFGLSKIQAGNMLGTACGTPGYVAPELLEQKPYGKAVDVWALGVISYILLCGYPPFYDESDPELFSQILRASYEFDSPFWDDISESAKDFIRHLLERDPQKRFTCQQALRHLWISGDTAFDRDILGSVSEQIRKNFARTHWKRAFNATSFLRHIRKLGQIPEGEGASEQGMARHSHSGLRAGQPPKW

For `CC(=O)c1c(NS(C)(=O)=O)c2cc(-c3ccc(Cl)cc3)c(-c3ccc(Cl)cc3Cl)nc2n(C)c1=O` [MRL-CB1-NC], the residual activity [1] was 86%, the residual activity [2] was 93% and the residual activity [3] was 100%. It also gave a residual activity [4] of 85%, a residual activity [5] of 100% and a residual activity [6] of 76%. For the same compound, the residual activity [7] was 100%, the residual activity [8] was 100% and the residual activity [9] was 100%. The residual activity [10] was 100%, the residual activity [11] was 100% and the residual activity [12] was 89%. For the same compound, the residual activity [13] was 89%, the residual activity [14] was 100% and the residual activity [15] was 100%. The residual activity [16] was 85%, the residual activity [17] was 100% and the residual activity [18] was 96%. The residual activity [19] was 96%, the residual activity [20] was 100% and the residual activity [21] was 81%. It also gave a residual activity [22] of 100%, a residual activity [23] of 91% and a residual activity [24] of 100%. For the same compound, the residual activity [25] was 91%, the residual activity [26] was 63% and the residual activity [27] was 100%. The residual activity [28] was 100%, the residual activity [29] was 94% and the residual activity [30] was 76%. For the same compound, the residual activity [31] was 100%, the residual activity [32] was 65% and the residual activity [33] was 100%. For the same compound, the residual activity [34] was 98%, the residual activity [35] was 100% and the residual activity [36] was 100%. It also gave a residual activity [37] of 100%, a residual activity [38] of 100% and a residual activity [39] of 92%. For the same compound, the residual activity [40] was 64%, the residual activity [41] was 82% and the inhibition [42] was 78.8%. It also gave an inhibition [43] of 2.43%, an inhibition [44] of -4.45% and an inhibition [45] of 4.36%.
In the case of `CC(=O)Nc1c(C(C)=O)c(=O)n(C)c2nc(-c3ccc(Cl)cc3Cl)c(-c3ccc(Cl)cc3)cc12` [NAPHTHYRIDINONE], the residual activity [1] is reported as 89%, the residual activity [2] is reported as 100% and the residual activity [3] is reported as 100%. The residual activity [4] was 100%, the residual activity [5] was 92% and the residual activity [6] was 92%. It also gave a residual activity [7] of 100%, a residual activity [8] of 100% and a residual activity [9] of 100%. The residual activity [10] was 100%, the residual activity [11] was 100% and the residual activity [12] was 100%. It also gave a residual activity [13] of 100%, a residual activity [14] of 100% and a residual activity [15] of 100%. It also gave a residual activity [16] of 100%, a residual activity [17] of 100% and a residual activity [18] of 100%. It also gave a residual activity [19] of 100%, a residual activity [20] of 100% and a residual activity [21] of 98%. The residual activity [22] was 100%, the residual activity [23] was 100% and the residual activity [24] was 100%. For the same compound, the residual activity [25] was 100%, the residual activity [26] was 92% and the residual activity [27] was 100%. The residual activity [28] was 100%, the residual activity [29] was 100% and the residual activity [30] was 94%. The residual activity [31] was 100%, the residual activity [32] was 91% and the residual activity [33] was 100%. The residual activity [34] was 100%, the residual activity [35] was 100% and the residual activity [36] was 100%. The residual activity [37] was 96%, the residual activity [38] was 100% and the residual activity [39] was 100%. The residual activity [40] was 68%, the residual activity [41] was 94% and the inhibition [42] was 21.8%. It also gave an inhibition [43] of 5.73%, an inhibition [44] of -7.96% and an inhibition [45] of -6.59%.
